Laboratory results published in ChEMBL document CHEMBL1177696, “Heat shock protein 70 (hsp70) as an emerging drug target” (J Med Chem, 2010).
In brackets after ≈: the same amount, converted by molar mass.

Key:
Escherichia coli [1] = assay: Inhibition of Escherichia coli DNAK at 150 uM
[2] = system: Yersinia pseudotuberculosis; assay: Antibacterial activity against Yersinia pseudotuberculosis; assay type: functional
[3] = Binding affinity to Escherichia coli DNAK substrate binding domain by isothermal titration assay
Escherichia coli [4] = assay: Antibacterial activity against Escherichia coli; assay type: functional
[5] = Inhibition of APIase activity of Escherichia coli MC4100 DNAK
Escherichia coli [6] = assay: Antibacterial activity against Escherichia coli MC4100; assay type: functional
[7] = Inhibition of Escherichia coli DNAK by luciferase-refolding assay
[8] = Cytotoxicity against human erythrocytes assessed as hemolysis after 30 mins by spectrometric analysis; assay type: cell-based; conditions: Erythrocyte, 0.5 h
[9] = Antiproliferative activity against human breast cancer cells; assay type: functional, cell-based; conditions: Cancer cell lines
[10] = Antiproliferative activity against human bladder cancer cells; assay type: functional, cell-based; conditions: Cancer cell lines
[11] = Antiproliferative activity against human colon cancer cells; assay type: functional, cell-based; conditions: Cancer cell lines
Escherichia coli [12] = assay: Ratio of ciprofloxacin MIC to compound MIC for Escherichia coli; assay type: functional
L1210 = assay: Antitumor activity against mouse L1210 cells xenografted in CDF1 mouse assessed as log reduction in tumor burden; assay type: functional
[13] = Binding affinity to HSP90 EEVD domain by mass spectroscopy
[14] = biological target: Heat shock cognate 71 kDa protein (Homo sapiens) (UniProt P11142); assay: Binding affinity to HSC70 EEVD domain by mass spectroscopy
Chain of Heat shock cognate 71 kDa protein (Homo sapiens) (P11142 2-646 limits assumed): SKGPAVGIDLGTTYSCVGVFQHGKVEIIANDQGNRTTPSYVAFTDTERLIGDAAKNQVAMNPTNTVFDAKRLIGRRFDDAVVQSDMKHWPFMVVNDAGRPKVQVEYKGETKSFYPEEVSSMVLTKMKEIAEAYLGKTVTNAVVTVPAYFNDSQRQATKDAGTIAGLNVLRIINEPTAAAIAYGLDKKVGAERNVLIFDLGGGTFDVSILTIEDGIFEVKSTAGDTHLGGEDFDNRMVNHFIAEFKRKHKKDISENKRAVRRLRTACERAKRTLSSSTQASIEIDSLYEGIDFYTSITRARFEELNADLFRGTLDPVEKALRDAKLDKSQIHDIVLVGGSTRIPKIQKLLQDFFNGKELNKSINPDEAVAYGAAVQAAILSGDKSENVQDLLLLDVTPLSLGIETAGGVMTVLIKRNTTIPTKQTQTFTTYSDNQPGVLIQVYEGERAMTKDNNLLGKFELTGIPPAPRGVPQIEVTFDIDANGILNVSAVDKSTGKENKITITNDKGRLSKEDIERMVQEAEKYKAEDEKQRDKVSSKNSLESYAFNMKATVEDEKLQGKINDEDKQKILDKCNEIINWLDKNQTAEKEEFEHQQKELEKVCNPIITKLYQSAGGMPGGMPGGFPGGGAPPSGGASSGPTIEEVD

Saccharomyces cerevisiae = assay: Induction of ATPase activity of yeast cytosolic HSC70
[15] = Alpha half life in renal transplant patient; assay type: ADME, organism-based; conditions: human, in vivo; read-out: alphat1/2
[16] = Terminal half life in renal transplant patient; assay type: ADME, organism-based; conditions: human, in vivo; read-out: beta t1/2 (converted)

CC1=C(C(=O)OCc2ccccc2)C(c2ccc(C3CCCCC3)cc2)NC(=O)N1CCCCCC(=O)O (configuration not stated)
inhibition (Escherichia coli [1]): 80%

O=C(NCc1ccccc1F)c1cccs1
MIC [2]: 10 µM (≈ 2.35 µg/mL)
Kd [3]: 70 µM
MIC (Escherichia coli [4]): 10 µM (≈ 2.35 µg/mL)

CCCCCCCCCCCCCCC(=O)NCc1ccc(C(=O)N[C@H](C(=O)O)[C@@H](C)CC)cc1
IC50 [5]: 5 µM
MIC (Escherichia coli [6]): 380 µg/mL (≈ 778 µM)

O=C(Nc1ccc2[nH]ccc2c1)c1cccs1
MIC [2]: 10 µM (≈ 2.42 µg/mL)
Kd [3]: 12.7 µM
MIC (Escherichia coli [4]): 10 µM (≈ 2.42 µg/mL)

CCCCCCCCCCCCCCCCC(=O)NCc1ccc(C(=O)N[C@H](C(=O)O)[C@@H](C)CC)cc1
IC50 [5]: 1.2 µM
MIC (Escherichia coli [6]): 180 µg/mL (≈ 348 µM)

COC(=O)C1=C(CCc2ccccc2)NC(=O)NC1c1ccc([N+](=O)[O-])cc1 (configuration not stated)
EC50 [7]: 4 µM

CCCC/C=C\CCCCCCCCC(=O)NCc1ccc(C(=O)N[C@H](C(=O)O)[C@@H](C)CC)cc1
IC50 [5]: 36 µM
EC50 [8]: > 1500 µg/mL
MIC (Escherichia coli [6]): 280 µg/mL (≈ 575 µM)

CCn1c(=O)/c(=C2\Sc3ccccc3N2C)s/c1=C\c1cccc[n+]1CC
IC50 [9]: 1 µM
IC50 [10]: 1 µM
IC50 [11]: 1 µM

H-GRPDKPRPYLPRPRPPRPVRI-OH
Ratio (Escherichia coli [12]): 4

N=C(N)NCCCCCCC(=O)N[C@@H](O)C(=O)NCCCCNCCCN
FC (L1210): 4
Activity [13]: 5 µM
Activity [14]: 5 µM
Activity (Saccharomyces cerevisiae): 20%
half-life [15]: 5 min
half-life [16]: 2 h

Cc1ccc(NC(=O)c2ccc([N+](=O)[O-])o2)cc1
MIC [2]: < 12 µM
MIC (Escherichia coli [4]): 10 µM (≈ 2.46 µg/mL)
